This passage reports GI50 and IC50 results from US20260184726A1, “HETEROCYCLIC COMPOUNDS AS KINASE INHIBITORS, COMPOSITIONS, AND METHODS OF USE THEREOF” (JS INNOMED HOLDINGS LTD., priority 2022, published 2026).

In test [1] the target is T1, Ba/F3-KIF5B-RET-G810R cells (Homo sapiens, UniProt P07949, G810R, cells depend on it).
T1 construct: fused on or other part: P33176 (Kinesin-1 heavy chain)
The test is described as follows: Ba/F3-KIF5B-RET-G810R Cell Proliferation Assay (CellTiter-Glo). The format is cell-based. Conditions: growth inhibition, 72 hours; Table 3. Here is the method: (§1) Compounds disclosed herein were tested for the inhibition of RET by a cancer cell proliferation assay commonly known as CellTiter-Glo assay. In this assay, a complete media was prepared by adding 10% fetal bovine serum to RPMI-1640 medium (Life technology) for RET-driven cancer cells (BAF3-FIF5B-RET, Ba/F3-KIF5B-RET-G810R, Ba/F3-TEL-RET-M918T or Ba/F3-KIF5B-RET-V804M). Individual RET-driven type of cells were added to each of 88 wells of a 96 well plate at a seeding density of 2,000 cells/well/95 μL. The cells were allowed to attach to the plate by incubating at 37° C. for 24 hours. The compound was dissolved in DMSO (SIGMA). A solution of test compound was prepared in complete media by serial dilution to obtain the following concentrations: 20 μM, 6.67 μM, 2.22 μM, 0.74 μM, 0.25 μM, 0.082 μM, 0.027 μM, 0.0091 μM and 0.0030 μM. The test compound solution (5 μL) was added to each of 80 cell-containing wells. The final concentrations of the compound were following: 1 μM, 0.33 μM, 0.11 μM, 0.037 μM, 0.012 μM, 0.0041 μM, 0.0014 μM, 0.00046 μM and 0.00015 μM. The final concentration of DMSO is 0.1%. To the 8 remaining cell-containing wells, only complete media (containing 0.1% DMSO) was added to form a control group in order to measure maximal proliferation. To the remaining 8 empty wells, complete media was added to for a vehicle control group in order to measure background. The plates were incubated at 37° C. for 72 hours. 50 μl of CellTiter-Glo® Reagent was added to each well. Mix contents for 2 minutes on an orbital shaker to induce cell lysis. Incubate at room temperature for 10 minutes to stabilize luminescent signal. Record luminescence on Paradigm. Cell viability (CV %) was calculated relative to vehicle (DMSO) treated control wells. The IC50 was calculated using GraphPad Prism.
(ATP-based viability assays read luminescence as a measure of living cells.)

Test [2] has as its target T2, Ba/F3-KIF5B-RET-V804M cells (Homo sapiens, UniProt P07949, V804M, cells depend on it).
T2 construct: fused on or other part: P33176 (Kinesin-1 heavy chain)
The experiment in a line: Ba/F3-KIF5B-RET-V804M Cell Proliferation Assay (CellTiter-Glo). The format is cell-based. Conditions: growth inhibition, 72 hours; Table 3; read-out: BZ/F3-KIF5B-RET V804M. Here is the method:
as §1

Test [3] has as its target T3, human RET kinase (Homo sapiens, UniProt P07949).
T3 construct: purchased Carna 08-159
The experiment in a line: RET Kinase Assay (mobility shift assay, ATP at Km). The test is classed as biochemical. The following applies: 23 μM ATP (Km), read-out: RET Enzymatic Activity. Here is the method: Compounds were tested by Mobility shift assay with ATP concentration at Km. The assay used human RET kinase (Carna 08-159). Test compounds were prepared and diluted in DMSO in 3-fold serial dilutions to 50× of the final testing concentrations. The compounds were then further diluted to 5× by the kinase reaction buffer (50 mM HEPES pH 7.5, 0.0015% Brij-35). The enzymatic reaction for compound testing was performed in a white 384-well polypropylene plate (Corning 3573) with a total reaction volume of 25 μl containing 7 nM RET, 3 μM peptide substrate FAM-P2 (GL Biochem 112394), and 23 μM ATP (Sigma A7699-1G). The assay started with loading RET diluted in kinase reaction buffer to wells, followed by addition of equal volume of 5× compounds for 15-min incubation at the room temperature for pre-treatment. The enzymatic reaction was initiated by addition of mixture of the substrate and ATP prepared in kinase reaction buffer. After incubation at 28° C. for one hour, 25 μl of stopper buffer (a mixture of 100 mM HEPES pH 7.5 buffer, 0.015% Brij-35, 50 mM EDTA and 0.2% of coating reagent 3 (Cliper Lifesciences)). After 30 minutes of incubation at room temperature, the plate was read in a Caliper. Percent of control was calculated as the percentage of compound-treated vs 2% DMSO vehicle-treated. The dose-response curves were generated and the IC50 values were calculated by nonlinear sigmoid curve fitting using XLFit.

In test [4] the target is T4, BAF3-KIF5B-RET cells (Homo sapiens, UniProt P07949).
T4 construct: fused on or other part: P33176 (Kinesin-1 heavy chain)
The experiment in a line: BAF3-KIF5B-RET Cell Proliferation Assay (CellTiter-Glo). The test is classed as cell-based. The following applies: growth inhibition, 72 hours. An outline of the steps:
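Ba/F3 cells driven by KIF5B-RET (wild-type, V804M or G810R) or TEL-RET-M918T, 2,000 per well in RPMI/10% FBS, attached 24 h. Treated 72 h at 37° C with compound from 0.00015 to 1 μM final, 0.1% DMSO. CellTiter-Glo luminescence relative to DMSO wells gave IC50.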

Test [5] concerns the target BA/F3-KIF5B-RET M918T cells (Homo sapiens, UniProt P07949, M918T, cells depend on it, form not given). The experiment in a line: Ba/F3 RET-M918T Cell Proliferation Assay (CellTiter-Glo). The following applies: growth inhibition, 72 hours; Table 3. The test is classed as cell-based. How it is done: as §1
Test [6] addresses T5, human Aurora B kinase (Homo sapiens, UniProt Q96GD4).
T5 construct: purchased Carna 05-102
The test is described as follows: Aurora B Kinase Assay (mobility shift assay, ATP at Km). The format is biochemical. Conditions: 15 μM ATP (Km), read-out: AurB Enzymatic Activity. Here is the method: Compounds were tested by Mobility shift assay with ATP concentration at Km. The assay used human Aurora B kinase (Carna 05-102). Test compounds were prepared and diluted in DMSO in 3-fold serial dilutions to 50× of the final testing concentrations. The compounds were then further diluted to 5× by the kinase reaction buffer (50 mM HEPES pH 7.5, 0.0015% Brij-35). The enzymatic reaction for compound testing was performed in a white 384-well polypropylene plate (Corning 3573) with a total reaction volume of 25 μl containing 9 nM Aurora B, 3 μM peptide substrate FAM-P21 (GL Biochem 116370), and 15 μM ATP (Sigma A7699-1G). The assay started with loading Aurora B diluted in kinase reaction buffer to wells, followed by addition of equal volume of 5× compounds for 15-min incubation at the room temperature for pre-treatment. The enzymatic reaction was initiated by addition of mixture of the substrate and ATP prepared in kinase reaction buffer. After incubation at 28° C. for one hour, 25 μl of stopper buffer (a mixture of 100 mM HEPES pH 7.5 buffer, 0.015% Brij-35, 50 mM EDTA and 0.2% of coating reagent 3 (Cliper Lifesciences)). After 30 minutes of incubation at room temperature, the plate was read in a Caliper. Percent of control was calculated as the percentage of compound-treated vs 2% DMSO vehicle-treated. The dose-response curves were generated and the IC50 values were calculated by nonlinear sigmoid curve fitting using XLFit.

Test [7] has as its system BAF3 cells. The experiment in a line: BAF3 Cell Proliferation Assay (CellTiter-Glo, without RET driven, IL-3). The test is classed as cell-based. Conditions: Mus musculus; growth inhibition in BAF3 cells, 72 hours, with IL-3; read-out: BAF3 Cellular Activity. A digest of the protocol:
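BAF3 cells in RPMI-1640 with 10% FBS and 1 ng/ml IL-3, seeded 2,000/well and settled 24 h at 37 °C, then exposed to compound at final 10 μM down to 0.0015 μM (0.1% DMSO) for 72 h. Viability by CellTiter-Glo luminescence versus DMSO controls; IC50 from curve fit.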

Test [8] concerns the target T6, human KDR kinase (Homo sapiens, UniProt P35968).
T6 construct: purchased Carna 08-191
The experiment in a line: KDR Kinase Assay (mobility shift assay, ATP at Km). The test is classed as biochemical. Conditions: 92 μM ATP (Km), read-out: KDR Enzymatic Activity. How it is done:
Compounds were tested by Mobility shift assay with ATP concentration at Km. The assay used human KDR kinase (Carna 08-191). Test compounds were prepared and diluted in DMSO in 3-fold serial dilutions to 50× of the final testing concentrations. The compounds were then further diluted to 5× by the kinase reaction buffer (50 mM HEPES pH 7.5, 0.0015% Brij-35). The enzymatic reaction for compound testing was performed in a white 384-well polypropylene plate (Corning 3573) with a total reaction volume of 25 μl containing 1.2 nM KDR, 3 μM peptide substrate FAM-P22 (GL Biochem 112393), and 92 μM ATP (Sigma A7699-1G). The assay started with loading RET diluted in kinase reaction buffer to wells, followed by addition of equal volume of 5× compounds for 15-min incubation at the room temperature for pre-treatment. The enzymatic reaction was initiated by addition of mixture of the substrate and ATP prepared in kinase reaction buffer. After incubation at 28° C. for one hour, 25 μl of stopper buffer (a mixture of 100 mM HEPES pH 7.5 buffer, 0.015% Brij-35, 50 mM EDTA and 0.2% of coating reagent 3 (Cliper Lifesciences)). After 30 minutes of incubation at room temperature, the plate was read in a Caliper. Percent of control was calculated as the percentage of compound-treated vs 2% DMSO vehicle-treated. The dose-response curves were generated and the IC50s were calculated by nonlinear sigmoid curve fitting using XLFit.

Where [9] appears, read: Table 2, read-out: BA/F3-KIF5B-RET Cellular activity.
The mark [10] stands for this setting: Table 3, read-out: BA/F3-KIF5B-RET.

Like-named read-outs stand apart in the source and are kept apart here.

T4 sequence (P07949 whole entry, change not shown, the tested form may be a part): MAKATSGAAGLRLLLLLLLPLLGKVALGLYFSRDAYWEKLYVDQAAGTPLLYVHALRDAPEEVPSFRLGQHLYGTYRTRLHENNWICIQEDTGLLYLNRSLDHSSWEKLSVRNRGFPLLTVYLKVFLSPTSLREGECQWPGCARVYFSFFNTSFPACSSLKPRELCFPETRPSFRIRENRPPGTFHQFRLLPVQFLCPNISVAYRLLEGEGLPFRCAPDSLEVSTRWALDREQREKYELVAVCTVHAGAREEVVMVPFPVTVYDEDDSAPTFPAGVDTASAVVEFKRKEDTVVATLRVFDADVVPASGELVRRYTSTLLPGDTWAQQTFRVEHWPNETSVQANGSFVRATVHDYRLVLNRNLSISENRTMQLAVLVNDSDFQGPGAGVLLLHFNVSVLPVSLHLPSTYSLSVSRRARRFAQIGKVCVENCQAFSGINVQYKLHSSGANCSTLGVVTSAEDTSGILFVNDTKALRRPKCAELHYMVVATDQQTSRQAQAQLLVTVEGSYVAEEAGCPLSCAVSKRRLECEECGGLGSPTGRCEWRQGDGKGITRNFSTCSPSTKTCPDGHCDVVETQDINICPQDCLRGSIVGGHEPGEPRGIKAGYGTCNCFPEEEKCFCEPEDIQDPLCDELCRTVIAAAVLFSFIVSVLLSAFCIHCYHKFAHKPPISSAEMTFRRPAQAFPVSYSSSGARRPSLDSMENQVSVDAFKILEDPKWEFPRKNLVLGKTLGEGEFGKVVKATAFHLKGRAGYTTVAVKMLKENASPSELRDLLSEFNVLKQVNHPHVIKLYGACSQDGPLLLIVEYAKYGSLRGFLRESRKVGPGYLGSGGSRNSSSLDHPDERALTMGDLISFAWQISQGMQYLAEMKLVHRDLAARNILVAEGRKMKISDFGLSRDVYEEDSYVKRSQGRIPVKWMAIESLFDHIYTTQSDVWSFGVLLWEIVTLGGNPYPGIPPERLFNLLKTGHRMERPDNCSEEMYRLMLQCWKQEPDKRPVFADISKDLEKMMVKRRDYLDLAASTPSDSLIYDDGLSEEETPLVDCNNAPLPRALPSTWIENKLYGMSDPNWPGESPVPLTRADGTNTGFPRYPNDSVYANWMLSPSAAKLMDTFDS
Sequence of BA/F3-KIF5B-RET M918T cells (P07949 whole entry M918T, form open): as the sequence (P07949 whole entry, change not shown, the tested form may be a part) above, with M918T counted along it
T1 sequence (P07949 whole entry G810R, the tested form may be a part): as the sequence (P07949 whole entry, change not shown, the tested form may be a part) above, with G810R counted along it
T3 sequence (P07949 29-1114): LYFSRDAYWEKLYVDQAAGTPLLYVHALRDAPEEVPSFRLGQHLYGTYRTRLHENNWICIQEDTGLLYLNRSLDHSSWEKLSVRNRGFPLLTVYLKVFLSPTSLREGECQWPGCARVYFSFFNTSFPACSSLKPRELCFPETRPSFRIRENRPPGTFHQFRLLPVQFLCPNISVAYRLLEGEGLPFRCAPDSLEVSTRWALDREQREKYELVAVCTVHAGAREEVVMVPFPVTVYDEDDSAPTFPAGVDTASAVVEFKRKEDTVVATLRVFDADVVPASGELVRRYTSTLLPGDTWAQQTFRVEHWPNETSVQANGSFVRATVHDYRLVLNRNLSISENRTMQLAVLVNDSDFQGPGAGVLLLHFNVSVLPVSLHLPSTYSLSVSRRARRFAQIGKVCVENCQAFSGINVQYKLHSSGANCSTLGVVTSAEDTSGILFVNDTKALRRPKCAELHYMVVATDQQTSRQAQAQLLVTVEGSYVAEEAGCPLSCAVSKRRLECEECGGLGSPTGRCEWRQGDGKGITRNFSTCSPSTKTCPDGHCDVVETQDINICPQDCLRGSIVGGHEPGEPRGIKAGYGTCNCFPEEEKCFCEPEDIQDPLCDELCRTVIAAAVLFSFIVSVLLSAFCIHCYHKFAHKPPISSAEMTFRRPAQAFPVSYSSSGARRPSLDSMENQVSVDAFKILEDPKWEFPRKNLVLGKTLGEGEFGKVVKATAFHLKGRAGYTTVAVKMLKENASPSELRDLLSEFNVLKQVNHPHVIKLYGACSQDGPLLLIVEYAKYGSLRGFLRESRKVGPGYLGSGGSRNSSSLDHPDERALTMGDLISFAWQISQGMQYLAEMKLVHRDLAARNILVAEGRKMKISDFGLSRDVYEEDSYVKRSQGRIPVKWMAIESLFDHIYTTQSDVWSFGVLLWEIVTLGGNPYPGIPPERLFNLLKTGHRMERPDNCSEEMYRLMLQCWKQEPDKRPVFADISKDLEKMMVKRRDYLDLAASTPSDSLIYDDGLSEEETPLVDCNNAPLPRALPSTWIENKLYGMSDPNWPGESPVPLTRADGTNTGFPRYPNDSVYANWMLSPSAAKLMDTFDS
T2 sequence (P07949 whole entry V804M, the tested form may be a part): as the sequence (P07949 whole entry, change not shown, the tested form may be a part) above, with V804M counted along it
T6 sequence (P35968 20-1356): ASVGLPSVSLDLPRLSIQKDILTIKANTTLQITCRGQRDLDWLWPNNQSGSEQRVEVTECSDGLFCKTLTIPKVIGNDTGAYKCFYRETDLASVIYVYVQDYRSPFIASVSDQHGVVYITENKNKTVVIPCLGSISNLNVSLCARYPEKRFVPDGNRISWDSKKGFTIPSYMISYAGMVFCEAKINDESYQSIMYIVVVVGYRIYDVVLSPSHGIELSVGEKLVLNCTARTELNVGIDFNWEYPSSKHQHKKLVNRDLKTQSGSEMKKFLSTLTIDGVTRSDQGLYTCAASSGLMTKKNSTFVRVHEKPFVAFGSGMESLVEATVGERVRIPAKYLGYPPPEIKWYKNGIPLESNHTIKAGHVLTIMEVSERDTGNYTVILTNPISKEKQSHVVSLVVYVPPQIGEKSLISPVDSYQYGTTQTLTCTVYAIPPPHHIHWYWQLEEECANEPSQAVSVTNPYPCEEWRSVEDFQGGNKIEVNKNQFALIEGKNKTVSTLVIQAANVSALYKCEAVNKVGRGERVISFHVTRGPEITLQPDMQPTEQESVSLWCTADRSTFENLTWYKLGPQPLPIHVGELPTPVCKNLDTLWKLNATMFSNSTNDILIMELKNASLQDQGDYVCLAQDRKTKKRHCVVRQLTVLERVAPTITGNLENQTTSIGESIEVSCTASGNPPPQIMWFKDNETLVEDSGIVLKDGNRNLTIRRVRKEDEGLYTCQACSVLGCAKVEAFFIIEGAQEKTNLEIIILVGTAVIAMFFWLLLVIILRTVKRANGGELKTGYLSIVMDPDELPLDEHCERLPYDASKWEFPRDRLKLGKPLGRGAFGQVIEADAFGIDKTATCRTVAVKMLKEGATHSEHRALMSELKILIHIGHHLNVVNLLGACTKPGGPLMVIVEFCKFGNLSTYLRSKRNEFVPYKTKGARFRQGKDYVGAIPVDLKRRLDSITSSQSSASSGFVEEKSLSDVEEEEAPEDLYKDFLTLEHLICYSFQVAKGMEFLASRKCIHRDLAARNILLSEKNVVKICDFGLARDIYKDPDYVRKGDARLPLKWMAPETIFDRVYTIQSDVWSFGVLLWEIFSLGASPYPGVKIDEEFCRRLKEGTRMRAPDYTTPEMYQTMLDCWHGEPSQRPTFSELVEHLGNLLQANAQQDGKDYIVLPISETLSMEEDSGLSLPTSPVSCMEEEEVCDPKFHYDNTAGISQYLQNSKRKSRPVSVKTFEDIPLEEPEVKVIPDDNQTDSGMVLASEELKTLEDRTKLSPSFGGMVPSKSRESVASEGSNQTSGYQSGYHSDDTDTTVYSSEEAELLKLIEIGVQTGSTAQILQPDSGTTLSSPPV
T5 sequence (Q96GD4 whole entry): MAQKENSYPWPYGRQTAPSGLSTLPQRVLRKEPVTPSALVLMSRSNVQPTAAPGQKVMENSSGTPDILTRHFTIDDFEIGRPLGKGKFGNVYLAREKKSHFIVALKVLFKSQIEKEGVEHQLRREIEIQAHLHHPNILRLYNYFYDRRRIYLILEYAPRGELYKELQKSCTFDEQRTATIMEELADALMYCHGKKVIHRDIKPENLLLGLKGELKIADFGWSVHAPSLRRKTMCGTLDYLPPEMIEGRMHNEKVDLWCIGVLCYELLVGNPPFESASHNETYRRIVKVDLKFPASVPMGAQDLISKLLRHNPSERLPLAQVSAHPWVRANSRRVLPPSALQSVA
T5 sequence (Q9NQS7 803-918 partner limits assumed): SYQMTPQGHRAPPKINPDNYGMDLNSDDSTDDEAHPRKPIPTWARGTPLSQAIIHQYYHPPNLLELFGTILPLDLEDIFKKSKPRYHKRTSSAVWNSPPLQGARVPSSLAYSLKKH

Consider `COc1ccc(CN2C3CC2CN(c2ccc(-c4cc(-c5ccc(C(C)(C)O)cn5)cn5ncc(C#N)c45)cn2)C3)cn1` [Example 9, 6-(5-(2-hydroxypropan-2-yl)pyridin-2-yl)-4-(6-(6-((6-methoxypyridin-3-yl)methyl)-3,6-diazabicyclo[3.1.1]heptan-3-yl)pyridin-3-yl)pyrazolo[1,5-a]pyridine-3-carbonitrile], for which the GI50 in test [1] was found to be 54.6 nM; in test [2] it was 4.8 nM; in test [4] (setting [9]), 0.6 nM; in test [4] (setting [10]) it was 0.6 nM; in test [5], 13.2 nM. Besides, the IC50 in test [3] amounted to 0.58 nM; in test [6], 80 nM; in test [7], 1130 nM.

On to `CC(C)(O)c1ccc(-c2cc(-c3ccc(N4C5CC6CC4CC(NC(=O)c4ncccc4Cl)(C6)C5)nc3)c3c(C#N)cnn3c2)nc1` [Example 23, 3-chloro-N-((1R,3S,5s,7s)-2-(5-(3-cyano-6-(5-(2-hydroxypropan-2-yl)pyridin-2-yl)pyrazolo[1,5-a]pyridin-4-yl)pyridin-2-yl)-2-azaadamantan-5-yl)picolinamide], for which the IC50 in test [3] stood at 1.7 nM; in test [7], 1140 nM; in test [8], 4.2 nM. For the same molecule, the GI50 in test [4] (setting [9]) was 0.5 nM.

Consider `COc1ccc(CN2C3CC2CN(c2ccc(-c4cc(OCC(C)(C)O)cn5ncc(C#N)c45)cn2)C3)cn1` [Loxo-292, reference compound], for which the GI50 in test [1] worked out at 624 nM; in test [2] it was 43.6 nM; in test [4] (setting [10]), 3.3 nM; in test [5] it was 46.9 nM.

As to `CC(C)(O)c1ccc(-c2cc(-c3cnc(N4C5CC6CC4CC(NC(=O)c4ncccc4Cl)(C6)C5)cn3)c3c(C#N)cnn3c2)nc1` [Example 18, 3-chloro-N-((1R,3S,5s,7s)-2-(5-(3-cyano-6-(5-(2-hydroxypropan-2-yl)pyridin-2-yl)pyrazolo[1,5-a]pyridin-4-yl)pyrazin-2-yl)-2-azaadamantan-5-yl)picolinamide], the GI50 in test [1] was 59.4 nM; in test [2], 3.9 nM; in test [4] (setting [9]), 0.7 nM; in test [4] (setting [10]) it was 0.7 nM; in test [5] it was 18.4 nM. Moreover, the IC50 was found to be 1.4 nM in test [3], 1170 nM in test [7] and 21 nM in test [8].
